The structures appear in SMILES notation.

Assay [1] has as its system mice with ConA induced liver damage. In words: ConA induced immunological liver damage model in mice. The class given is in vivo, Kunming mice. As for the experimental part: Kunming mice of clean grade (male, weight 20±2 g, supplied by the Laboratory Animal Center, Henan Province) are randomly divided into groups with 6 mice in each group. Bifendate (Xinchang Pharmaceutical Factory of Zhejiang Pharmaceutical Co., Ltd, 200 mg/kg) is used as positive control, andrographolide (AD) is provided by Furen Pharmaceutical Group Co., Ltd, and the test compounds are synthesized by the inventors with purities higher than 99.0%. Normal control group and model group are intragastrically given 0.5% sodium carboxymethylcellulose (CMC-Na), and test groups are given 0.5% CMC-Na suspensions with AD (0.88 mmol/kg), and low dosage (0.66 mmol/kg) and high dosage (0.88 mmol/kg) of compound A, B and C, respectively. The drugs are given for 3 days. One hour after the last administration, all mice except those in the normal control group are injected with a single dose of ConA (20 mg/kg) through the caudal vein. After 8 h, the eyeball is enucleated to collect blood, which is centrifuged at 3000 rpm for 15 min to separate serum. ALT and AST are tested according to the kit specification, respectively (Nanjing Jiancheng Bioengineering Institute). The left lobe of liver is taken to prepare 10% homogenate using physiological saline, MDA is determined according to the kit specification (Nanjing Jiancheng Bioengineering Institute). To 50 μL liver homogenate is added 2 mL of 0.5 mol/L KOH-methanol solution and kept at 50° C. water bath to isomerize for 20 minutes, then absorbance (A value) is measured at 278 nm, using the A value per mL of homogenate to represent the PGE2 content. Experimental data are expressed as average±standard deviation (X±s), analyzed with SPSS 11.5 statistic software, with P<0.05 meaning significant difference.
Kunming mice of clean grade (male, weight 20±2 g) are randomly divided into normal group, model group, bifendate (Zhejiang Wanbang Pharmaceutical Co., Ltd) positive control group (200 mg/kg), AD group (0.88 mmol/kg), low dosage group (0.66 mmol/kg) and high dosage (0.88 mmol/kg) group of compound D. ALT, AST, and MDA assay kits are purchased from Nanjing Jiancheng Bioengineering Institute. Other agents, drugs and experimental methods are the same as in EXAMPLE 1.
In experimental investigation of both models, the following grouping method is used: Kunming mice of clean grade (male, weight 20±2 g) are randomly divided into normal group, model group, bifendate group (200 mg/kg), AD group (0.88 mmol/kg), low dosage group (0.66 mmol/kg) and high dosage group (0.88 mmol/kg) of compound E, with 8 mice in each group. Other agents, drugs and experimental methods are the same as in EXAMPLE 1 and in EXAMPLE 4, respectively.

In assay [2] the test system is mice with carbon tetrachloride induced liver damage. In words: Carbon tetrachloride induced chemical liver damage model in mice. The class given is in vivo, Kunming mice. The protocol: Kunming mice of clean grade (male, weight 20±2 g), after adaptively fed for 3 days, are randomly divided into normal group, model group, bifendate positive control group (200 mg/kg), AD group (0.88 mmol/kg), low dosage group (0.66 mmol/kg) and high dosage group (0.88 mmol/kg) of compound A, B, C and D, with 8 mice in each group. Positive group and each test group are intragastrically given with respective suspension prepared with 0.5% CMC-Na, and normal group and model group are given with 0.5% CMC-Na. The drugs are given for 3 days, and 1 h after the last administration, all mice except those in the normal group are intraperitoneally injected with a single dose of 0.3% carbon tetrachloride in peanut oil (0.1 mL/10 g). After 16 h, the eyeball of the mice in each group is enucleated to collect blood, which is centrifuged at 3000 rpm for 15 min to separate serum. ALT and AST activities are tested respectively (Nanjing Jiancheng Bioengineering Institute). The left lobe of liver is taken to prepare 10% homogenate using physiological saline, MDA (Nanjing Jiancheng Bioengineering Institute) and PGE2 contents are determined. Experimental data are expressed as average±standard deviation (X±s), analyzed with SPSS 11.5 statistic software, with P<0.05 meaning there is a significant difference. Other agents, drugs and experimental methods are the same as in EXAMPLE 1. In experimental investigation of both models, the following grouping method is used: Kunming mice of clean grade (male, weight 20±2 g) are randomly divided into normal group, model group, bifendate group (200 mg/kg), AD group (0.88 mmol/kg), low dosage group (0.66 mmol/kg) and high dosage group (0.88 mmol/kg) of compound E, with 8 mice in each group. Other agents, drugs and experimental methods are the same as in EXAMPLE 1 and in EXAMPLE 4, respectively.

The mark [3] stands for this setting: high dosage 0.88 mmol/kg vs AD 0.88 mmol/kg, P<0.05.
Setting [4] is: low dosage (printed 0.66 mol/kg), P<0.01.
[5] abbreviates: dosage groups not distinguished (0.66 and 0.88 mmol/kg), P<0.01.
Setting [6] is: dosage groups not distinguished, P<0.01.
Setting [7] is: high dosage 0.88 mmol/kg, P<0.05.
The mark [8] stands for this setting: low dosage 0.66 mmol/kg vs AD 0.88 mmol/kg, P<0.05.

In the case of `C=C1CCC2C(C)(CO)C(O)CCC2(C)C1C=CC1=CC(=Cc2ccc(Cl)cc2)OC1=O` (centres unmarked) [Compound A], the “liver histopathologic section (HE staining)” value in assay [1] (HE stain, 200x, FIG. 5) was “no observation of extravasated blood in sinus hepaticus, liver cells show slightly granular degeneration and vacuolar degeneration, and no spotted and focal necrosis region is observed”. The “serum enzyme level relative to normal level” value in assay [1] (high dosage 0.88 mmol/kg) is “essentially decreased to normal level”. Further, in assay [1] (setting [3]), the “enzyme (ALT, AST) lowering effect compared to AD group” value is given as “better enzyme lowering effect”. Also, the “PGE2 content in liver homogenate vs model group” value in assay [1] (high dosage 0.88 mmol/kg, P<0.01) was “notably reduce PGE2 content”. Also, in assay [1] (low dosage 0.66 mmol/kg, P<0.05 (A), P<0.01 (D)), the “PGE2 content in liver homogenate vs model group” value is listed as “notably reduce PGE2 content”. Moreover, in assay [1] (setting [4]), the “MDA content in liver homogenate vs model group” value is on record as “more obvious effect” and the “ability against liver lipid peroxidation compared with AD group” value is recorded as “stronger resistant ability against liver lipid peroxidation”. In addition, in assay [1] (mice, intragastric, 3 days), the “protective effect against liver damage induced by ConA (summary)” value is given as “notably protective effect”. In addition, in assay [2] (setting [5]), the “ALT activity in serum vs model group” value is listed as “notably suppress the increase” and the “AST activity in serum vs model group” value is recorded as “notably suppress the increase”. In addition, in assay [2] (setting [6]), the “MDA level in liver homogenate vs model group” value is “effectively reduce” and the “PGE2 level in liver homogenate vs model group” value was “effectively reduce”. Besides, in assay [2] (setting [3]), the “magnitude of decrease in ALT activity compared to AD group” value is reported as “significantly better” and the “magnitude of decrease in AST activity compared to AD group” value is recorded as “significantly better”. For the same compound, in assay [2] (setting [7]), the “PGE2 content compared to AD group” value is “notably lower” and the “ability to reduce lipid peroxide level in liver homogenate compared to AD group” value was “stronger ability to reduce the lipid peroxide level”. In addition, in assay [2] (setting [8]), the “magnitude of decrease in ALT activity compared to AD group” value is recorded as “significantly better” and the “magnitude of decrease in AST activity compared to AD group” value was “significantly better”. For the same compound, the “ability to reduce lipid peroxide level in liver homogenate compared to AD group” value in assay [2] (low dosage 0.66 mmol/kg, P<0.05) was “stronger ability to reduce the lipid peroxide level”. Moreover, in assay [2] (mice, intragastric, 3 days), the “protective effect against liver damage induced by carbon tetrachloride (summary)” value is “protective effect”.

(Values after patent publication US9636324B2, “Use of 15-benzylidence-14-deoxy-11, 12 -dehyroandrographolide derivative in manufacture of medicaments for protecting liver and anti-hepatitis C virus” (Zhengzhou University, priority 2012, dated 2017).)
